# In the supplement of paper PMC10307832:
# Tests used:
# Experiment in all cases: relative viability (nuclei count vs DMSO), 5 days (fraction); higher = more cells survive
# NCI-H23 = system: NCI-H23
# Method in brief: (§1)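 Dosing by pin tool came one day after lung cancer cell lines were seeded in 1536-well plates, using either one drug or a fixed anchor-drug dose plus five library-drug doses (not always all listed) in √10 steps. After 5 days, nuclei were counted on 4× images. Relative viability is treated-well nuclei count divided by vehicle-well nuclei count, and values are medians of duplicate plates.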
# EMC-BAC-2 = system: EMC-BAC-2
# Method in brief: as §1
# NCI-H1915 = system: NCI-H1915
# Method in brief: as §1
# A-427 = system: A-427
# Method in brief: as §1
# NCI-H1437 = system: NCI-H1437
# Method in brief: as §1
# HARA = system: HARA
# Method in brief: as §1
# NCI-H1395 = system: NCI-H1395
# Method in brief: as §1
# SW 1573 = system: SW 1573
# Method in brief: as §1
# SK-LU-1 = system: SK-LU-1
# Method in brief: as §1
# HCC-827 = system: HCC-827
# Method in brief: as §1
# NCI-H460 = system: NCI-H460
# Method in brief: as §1
# NCI-H2228 = system: NCI-H2228
# Method in brief: as §1
# NCI-H1792 = system: NCI-H1792
# Method in brief: as §1
# COR-L 105 = system: COR-L 105
# Method in brief: as §1
# NCI-H727 = system: NCI-H727
# Method in brief: as §1
# LCLC-103H = system: LCLC-103H
# Method in brief: as §1
# HCC-366 = system: HCC-366
# Method in brief: as §1
# HOP-62 = system: HOP-62
# Method in brief: as §1
# NCI-H1755 = system: NCI-H1755
# Method in brief: as §1
# CAL-12T = system: CAL-12T
# Method in brief: as §1
# NCI-H2009 = system: NCI-H2009
# Method in brief: as §1
compound,measurement,setting,value
CC(=O)O[C@@]12CO[C@@H]1C[C@H](O)[C@@]1(C)C(=O)[C@H](O)C3=C(C)[C@@H](OC(=O)[C@H](O)[C@@H](NC(=O)OC(C)(C)C)c4ccccc4)C[C@@](O)([C@@H](OC(=O)c4ccccc4)[C@H]21)C3(C)C [Docetaxel] + Cc1nc(NC(=O)N2CCC[C@H]2C(N)=O)sc1-c1ccnc(C(C)(C)C(F)(F)F)c1 [Alpelisib] (partner 2 µM),relative viability,NCI-H23; first compound 0.0002 µM,0.612
same,relative viability,NCI-H23; first compound 0.000632 µM,0.512
same,relative viability,NCI-H23; first compound 0.002 µM,0.406
same,relative viability,NCI-H23; first compound 0.006325 µM,0.209
same,relative viability,NCI-H23; first compound 0.02 µM,0.0958
same,relative viability,EMC-BAC-2; first compound 0.0002 µM,0.694
same,relative viability,EMC-BAC-2; first compound 0.000632 µM,0.626
same,relative viability,EMC-BAC-2; first compound 0.002 µM,0.385
same,relative viability,EMC-BAC-2; first compound 0.006325 µM,0.246
same,relative viability,EMC-BAC-2; first compound 0.02 µM,0.154
same,relative viability,NCI-H1915; first compound 0.0002 µM,1.02
same,relative viability,NCI-H1915; first compound 0.000632 µM,0.971
same,relative viability,NCI-H1915; first compound 0.002 µM,0.52
same,relative viability,NCI-H1915; first compound 0.006325 µM,0.183
same,relative viability,NCI-H1915; first compound 0.02 µM,0.135
same,relative viability,A-427; first compound 0.0002 µM,1.02
same,relative viability,A-427; first compound 0.000632 µM,1.14
same,relative viability,A-427; first compound 0.002 µM,0.974
same,relative viability,A-427; first compound 0.006325 µM,0.204
same,relative viability,A-427; first compound 0.02 µM,0.164
same,relative viability,NCI-H1437; first compound 0.0002 µM,0.888
same,relative viability,NCI-H1437; first compound 0.000632 µM,0.759
same,relative viability,NCI-H1437; first compound 0.002 µM,0.156
same,relative viability,NCI-H1437; first compound 0.006325 µM,0.124
same,relative viability,NCI-H1437; first compound 0.02 µM,0.0738
same,relative viability,HARA; first compound 0.0002 µM,0.778
same,relative viability,HARA; first compound 0.000632 µM,0.525
same,relative viability,HARA; first compound 0.002 µM,0.282
same,relative viability,HARA; first compound 0.006325 µM,0.114
same,relative viability,HARA; first compound 0.02 µM,0.0727
same,relative viability,NCI-H1395; first compound 0.0002 µM,1
same,relative viability,NCI-H1395; first compound 0.000632 µM,1.02
same,relative viability,NCI-H1395; first compound 0.002 µM,1.35
same,relative viability,NCI-H1395; first compound 0.006325 µM,0.638
same,relative viability,NCI-H1395; first compound 0.02 µM,0.307
same,relative viability,SW 1573; first compound 0.0002 µM,0.739
same,relative viability,SW 1573; first compound 0.000632 µM,0.604
same,relative viability,SW 1573; first compound 0.002 µM,0.29
same,relative viability,SW 1573; first compound 0.006325 µM,0.233
same,relative viability,SW 1573; first compound 0.02 µM,0.185
same,relative viability,SK-LU-1; first compound 0.0002 µM,0.766
same,relative viability,SK-LU-1; first compound 0.000632 µM,0.467
same,relative viability,SK-LU-1; first compound 0.002 µM,0.495
same,relative viability,SK-LU-1; first compound 0.006325 µM,0.26
same,relative viability,SK-LU-1; first compound 0.02 µM,0.228
same,relative viability,HCC-827; first compound 0.0002 µM,0.981
same,relative viability,HCC-827; first compound 0.000632 µM,0.992
same,relative viability,HCC-827; first compound 0.002 µM,0.706
same,relative viability,HCC-827; first compound 0.006325 µM,0.288
same,relative viability,HCC-827; first compound 0.02 µM,0.282
same,relative viability,NCI-H460; first compound 0.0002 µM,0.303
same,relative viability,NCI-H460; first compound 0.000632 µM,0.185
same,relative viability,NCI-H460; first compound 0.002 µM,0.016
same,relative viability,NCI-H460; first compound 0.006325 µM,0.0118
same,relative viability,NCI-H460; first compound 0.02 µM,0.0069
same,relative viability,NCI-H2228; first compound 0.0002 µM,0.329
same,relative viability,NCI-H2228; first compound 0.000632 µM,0.243
same,relative viability,NCI-H2228; first compound 0.002 µM,0.232
same,relative viability,NCI-H2228; first compound 0.006325 µM,0.151
same,relative viability,NCI-H2228; first compound 0.02 µM,0.118
same,relative viability,NCI-H1792; first compound 0.0002 µM,0.728
same,relative viability,NCI-H1792; first compound 0.000632 µM,0.655
same,relative viability,NCI-H1792; first compound 0.002 µM,0.401
same,relative viability,NCI-H1792; first compound 0.02 µM,0.0824
same,relative viability,COR-L 105; first compound 0.0002 µM,0.828
same,relative viability,COR-L 105; first compound 0.000632 µM,0.952
same,relative viability,COR-L 105; first compound 0.002 µM,0.475
same,relative viability,COR-L 105; first compound 0.006325 µM,0.522
same,relative viability,COR-L 105; first compound 0.02 µM,0.306
same,relative viability,NCI-H727; first compound 0.0002 µM,0.583
same,relative viability,NCI-H727; first compound 0.000632 µM,0.639
same,relative viability,NCI-H727; first compound 0.002 µM,0.369
same,relative viability,NCI-H727; first compound 0.006325 µM,0.298
same,relative viability,NCI-H727; first compound 0.02 µM,0.23
same,relative viability,LCLC-103H; first compound 0.0002 µM,0.966
same,relative viability,LCLC-103H; first compound 0.000632 µM,0.984
same,relative viability,LCLC-103H; first compound 0.002 µM,0.963
same,relative viability,LCLC-103H; first compound 0.006325 µM,0.563
same,relative viability,LCLC-103H; first compound 0.02 µM,0.452
same,relative viability,HCC-366; first compound 0.0002 µM,0.331
same,relative viability,HCC-366; first compound 0.000632 µM,0.311
same,relative viability,HCC-366; first compound 0.002 µM,0.0519
same,relative viability,HCC-366; first compound 0.006325 µM,0.0149
same,relative viability,HCC-366; first compound 0.02 µM,0.0109
same,relative viability,HOP-62; first compound 0.0002 µM,0.899
same,relative viability,HOP-62; first compound 0.000632 µM,0.526
same,relative viability,NCI-H1755; first compound 0.0002 µM,0.871
same,relative viability,NCI-H1755; first compound 0.000632 µM,0.792
same,relative viability,NCI-H1755; first compound 0.002 µM,0.434
same,relative viability,NCI-H1755; first compound 0.006325 µM,0.326
same,relative viability,NCI-H1755; first compound 0.02 µM,0.262
same,relative viability,CAL-12T; first compound 0.0002 µM,1.06
same,relative viability,CAL-12T; first compound 0.000632 µM,0.699
same,relative viability,CAL-12T; first compound 0.002 µM,0.201
same,relative viability,CAL-12T; first compound 0.02 µM,0.154
same,relative viability,NCI-H2009; first compound 0.0002 µM,1.13
same,relative viability,NCI-H2009; first compound 0.000632 µM,1.16
same,relative viability,NCI-H2009; first compound 0.002 µM,0.988
same,relative viability,NCI-H2009; first compound 0.006325 µM,0.765
same,relative viability,NCI-H2009; first compound 0.02 µM,0.157
